This passage reports MIC and MBC results from US20240407363A1 (priority 2021, published 2024).

The assay relates to X. perforans GEV-485. The experiment in a line: In vitro MIC and MBC determination in nutrient broth / on NA plates. Format: cell-based. Particulars: three trials. As for the experimental part: X. perforans strain GEV-485, a copper-resistant strain, was used in this study to evaluate the antibacterial activity of Hx. Working cultures of GEV-485 were retrieved from −80° C. storage vials containing bacterial suspensions in 30% glycerol (v/v). Bacterial cells were taken from the storage, streaked on nutrient agar (NA; Difco™ Sparks, MD) plates and incubated for 48 h at 28° C. and single colonies were picked and streaked on NA plates to ensure bacterial purity for further cultures. NA amended with copper (II) sulfate pentahydrate (CuSO4·5H2O) (Fisher Scientific-Hampton, NH) at 20 ppm, was used as copper tolerance selective agent. To prepare the bacterial inoculum, a single bacterial colony was streaked on NA and incubated for 24 h at 28° C. From those plates, loops of bacterial cells were collected and resuspended in SDW amended with 0.01 M MgSO4. The bacterial concentration was adjusted to ˜5.0×10^8 colony-forming units (CFU)/mL based on an optical density (OD) of 0.3 at 600 nm. The in vitro studies were conducted to determine the minimum inhibitory concentration (MIC), minimum bactericidal concentration (MBC), and the antibacterial activity at different time points.
To determine MIC of Hx against X. perforans GEV-485, individual 96-well plates containing 100 μL of nutrient broth (NB) with varied copper and Hx concentrations were inoculated with 100 μL of the GEV-485 suspension at the concentration of 1.0×10^8 CFU/mL. The final chemical concentrations on the wells were 16, 32, 64, 128, 256, 512, 1024, 2048, 4096 and 8192 mg/L. Three wells with 100 µL of NB and 100 μL of the bacterial suspension were the controls. Solutions in all wells were thoroughly mixed by pipetting. The plate was, then, covered with a lid and incubated under stationary conditions at 28° C. for 24 h. The value of MIC for Hx and copper was determined as the minimum concentration (mg/L), at which the bacterial growth was inhibited (the solution was clear), among all tested concentrations of each chemical. After MIC was determined, an aliquot of 20 μL of the solution from the wells that gave a clear solution was plated on NA. […] The MBC was determined as the minimum concentration, at which >99.9% of the initial bacterial populations were killed and no visible growth of the bacterium was observed on the NA plates among all tested concentrations of antimicrobial agents. The experiment was repeated two more times, with three replications for each treatment.

Molecules are shown by their SMILES. Values after ≈ are worked out from the molar mass of the structure shown.

What is called MIC is the lowest concentration found to suppress growth. A word on the MBC: it is the lowest tested concentration that kills the bacteria rather than only halting them. As to `CCCCCC(=O)O` [Hexanoic acid, hexanoic acid], for the setting “28° C. for 24 h, copper-resistant strain, read-out: MIC”, the minimum inhibitory concentration (MIC) came out at 512 µg/mL (≈ 4.41 mM). Besides, the MBC (>99.9% of initial bacterial populations killed, no visible growth on NA, read-out: MBC) worked out at 1020 µg/mL (≈ 8.82 mM).
